Patent publication US20200071310A1, “N-ARYL PYRAZOLES AS NRF2 REGULATORS” (GLAXOSMITHKLINE INTELLECTUAL PROPERTY DEVELOPMENT LIMITED, priority 2016, published 2020)
Where a name gives a salt, the structure may show the parent alone.

How the values were obtained:
[1] = tested on: NQO1 specific enzyme activity in BEAS-2B cells; assay: BEAS-2B NQO1 MTT Assay; type: cell-based; conditions: Homo sapiens; NQO1 specific activity induction, BEAS-2B cells, 48 hours; read-out: EC50
Excerpt: NAD(P)H:quinone oxidoreductase 1 (NQO1), also called DT diaphorase, is a homodimeric FAD-containing enzyme that catalyzes obligatory NAD(P)H-dependent two-electron reductions of quinones and protects cells against the toxic and neoplastic effects of free radicals and reactive oxygen species arising from one-electron reductions. The transcription of NQO1 is finely regulated by NRF2, and thus NQO1 activity is a good marker for NRF2 activation. On day one, frozen BEAS-2B cells (ATCC) were thawed in a water bath, counted, and re-suspended at a concentration of 250,000 cells/mL. Fifty microliters of cells were plated in 384 well black clear-bottomed plates. Plates were incubated at 37° C., 5% CO2 overnight. On day two, plates were centrifuged and 50 nL of compound or controls were added to the cells. Plates were then incubated at 37° C., 5% CO2 for 48 hours. On day four, medium was aspirated from the plate and crude cell lysates were made by adding 13 uL of 1× Cell Signaling Technologies lysis buffer with 1 Complete, Mini, EDTA-free Protease Inhibitor Tablet (Roche) for each 10 mL of lysis buffer. After lysis plates were incubated for 20 minutes at room temperature. Two microliters of lysate were removed for use in Cell Titer Glo assay (Promega) and MTT cocktail was prepared (Prochaska et. al. 1998) for measurement of NQO1 activity. Fifty microliters of MTT cocktail is added to each well, plate is centrifuged, and analyzed on an Envision plate reader (Perkin Elmer) using Absorbance 570 nm label for 30 minutes. Product formation was measured kinetically and the pEC50 of NQO1 specific activity induction was calculated by plotting the change in absorbance (Delta OD/min) versus the log of compound concentration followed by 3-parameter fitting. pEC50 is the negative log of the EC50.

[2] = molecular target: T1, full length Keap1 protein / full length NRF2 protein (Homo sapiens, UniProt Q14145); assay: NRF2-Keap1 TR-FRET Low Protein Assay; type: binding
T1 construct: full length NRF2 protein and full length Keap1 protein (Keap1 exists a dimer) are used; His
T1 sequence (Q14145 whole entry): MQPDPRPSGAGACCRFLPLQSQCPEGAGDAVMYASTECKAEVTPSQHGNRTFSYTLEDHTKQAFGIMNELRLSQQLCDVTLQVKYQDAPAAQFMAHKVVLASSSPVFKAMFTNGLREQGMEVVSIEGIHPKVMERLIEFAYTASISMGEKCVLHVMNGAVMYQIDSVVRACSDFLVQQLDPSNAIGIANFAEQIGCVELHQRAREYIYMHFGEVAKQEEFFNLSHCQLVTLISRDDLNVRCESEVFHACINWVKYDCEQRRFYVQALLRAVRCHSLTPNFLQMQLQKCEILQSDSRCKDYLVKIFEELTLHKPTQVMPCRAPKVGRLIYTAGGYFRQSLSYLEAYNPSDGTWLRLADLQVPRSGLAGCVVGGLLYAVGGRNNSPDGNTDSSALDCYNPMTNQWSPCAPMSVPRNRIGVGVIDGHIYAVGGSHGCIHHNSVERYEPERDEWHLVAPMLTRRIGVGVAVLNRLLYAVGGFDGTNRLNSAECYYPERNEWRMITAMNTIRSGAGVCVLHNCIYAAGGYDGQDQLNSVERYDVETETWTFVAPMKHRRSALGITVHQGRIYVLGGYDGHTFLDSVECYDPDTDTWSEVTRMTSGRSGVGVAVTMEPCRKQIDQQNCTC
Excerpt: In the NRF2-Keap1 TR-FRET (time-resolved fluorescence resonance energy transfer) low protein assay, full length NRF2 protein and full length Keap1 protein (Keap1 exists a dimer) are used. The assay detects a compound's ability to displace the binding of Keap1 FlagHis with biotinylated Avi-NRF2 protein. Biotin-NRF2 binds to streptavidin-europium (a component of the detection mix) and Keap1 FlagHis is recognized by anti-Flag APC (allophycocyanin) antibody (also a component of the detection mix). If binding occurs between the two proteins, there will be an energy transfer from the Eu+3 (donor) at 615 nm to the APC (acceptor) at 665 nm. A potential NRF2 inhibitor will cause a reduction in the TR-FRET signal by interfering with the binding of Keap1 to NRF2.
Ten nanoliters of 100× compound dose response curves (serial 3-fold dilutions) in DMSO were stamped using an Echo liquid handling system (Labcyte) into 384-well, low volume, black assay plates (Greiner, #784076), with DMSO in columns 6 and 18. An additional 90 nl DMSO was added to each well, to bring the total volume to 100 nl per well. The top concentration of compound was located in columns 1 and 13, with the serial dilutions going across the row. All reagents were diluted in assay buffer (50 mM Tris, pH 8.0, 5 mM MgCl2, 100 mM NaCl, 0.005% BSA, 1 mM DTT, and 2 mM CHAPS. The BSA, DTT, and CHAPS were added to the assay buffer on the day of assay. Using a Multidrop Combi (Thermo Electron Corporation) equipped with a metal tip dispenser, 5 ul of 1.25 nM Keap1 FlagHis protein was added to all wells of the compound plate, with the exception of the wells in column 18. Wells in column 18 received 5 ul of assay buffer instead. Plates were centrifuged at 500 rpm for 1 minute, covered with a plate lid, and incubated at 37° C. for 2.25 hours. Plates were then removed from the incubator and allowed to cool to RT for 15 minutes. Five microliters of 2.5 nM biotin-NRF2 protein was then added to all wells of the plates and the plates were spun at 500 rpm for 1 minute, followed by incubating at 4° C. for 1.25 hours. The plates were then allowed to warm to RT for 15 minutes, followed by the addition of 10 ul of detection mix (1 nM Streptavidin Eu+W1024 and 5 ug/ml mouse anti-DYKDDDDK IgG conjugated to SureLight APC antibody; both from Columbia Biosciences) to all wells. Plates were spun at 500 rpm for 1 minute, incubated for 1 hour at RT, and read on an Envision plate reader using a 320 nm excitation filter and 615 nm and 665 nm emission filters. Compound response (% inhibition) and potency (pIC50) were calculated based on the ratio of the two emissions (665 nm/615 nm) and then the transformed data was normalized against controls in the assay (control 1=1% DMSO in the presence of NRF2 and Keap1 protein and control 2=1% DMSO in the presence of only the NRF2 protein). Data analysis was handled using the software package Abase XE (Surrey, United Kingdom). The % inhibition values were calculated from the ratio (transformed) data by the equation:
100−(100*(compound response−average control 2)/(average control 1−average control2)).
For calculation of pIC50s, Abase XE used a four parameter equation.
IC50s<10 nM (+++++), IC50s 10-100 nM (++++), IC50s 100 nM-1 uM (+++), IC50s 1-10 uM (++). and IC50s 10 uM-100 uM (+), IC50s>100 uM (−), or were not determined (ND).

EC50 [2] | Structure (SMILES) | EC50 [1]
1 to 10 µM | CCOc1ccc(Br)cc1CN(C)Cc1cccc(-n2ncc(C(=O)O)c2[C@@H]2C[C@H]2c2cn(C)nn2)c1 (racemic) [Example 54, 1-(3-(((5-bromo-2-ethoxybenzyl)(methyl)amino)methyl)phenyl)-5-((trans)-2-(1-methyl-1H-1,2,3-triazol-4-yl)cyclopropyl)-1H-pyrazole-4-carboxylic acid trifluoroacetate] | 0.1 to 1 µM
10 to 100 µM | CCC1c2ccccc2OC(C)(C)CN1Cc1cccc(-n2ncc(C(=O)O)c2[C@@H]2C[C@H]2c2cn(C)nn2)c1 (stereo partly shown) [Example 12] | 1 to 10 µM
1 to 10 µM | Cc1cc([C@@H]2C[C@H]2c2c(C(=O)O)cnn2-c2cccc(CN3C[C@@H](C)Cc4cc(C(F)(F)F)ccc4S3(=O)=O)c2)on1 (racemic) [Example 57, 1-(3-(((S)-4-Methyl-1,1-dioxido-7-(trifluoromethyl)-4,5-dihydrobenzo[f][1,2]thiazepin-2(3H)-yl)methyl)phenyl)-5-(trans-2-(3-methylisoxazol-5-yl)cyclopropyl)-1H-pyrazole-4-carboxylic acid] | 0.1 to 1 µM
10 to 100 µM | CCCCCCN(Cc1cccc(-n2ncc(C(=O)O)c2[C@@H]2C[C@H]2c2cnn(C)c2)c1)S(=O)(=O)c1ccccc1C (racemic) [Example 56] | 0.1 to 1 µM
1 to 10 µM | CCCN(Cc1cccc(-n2ncc(C(=O)O)c2[C@@H]2C[C@H]2c2cn(C)nn2)c1)S(=O)(=O)c1ccccc1C (racemic) [Example 50, 5-((trans)-2-(1-methyl-1H-1,2,3-triazol-4-yl)cyclopropyl)-1-(3-((2-methyl-N-propylphenylsulfonamido)methyl)phenyl)-1H-pyrazole-4-carboxylic acid] | 0.01 to 0.1 µM
0.01 to 0.1 µM | C[C@H]1Cc2ccc(Br)cc2S(=O)(=O)N(Cc2cccc(-n3ncc(C(=O)O)c3[C@@H]3C[C@H]3c3cn(C)nn3)c2)C1 (racemic) [Example 17, 1-(3-((8-bromo-4-methyl-1,1-dioxido-4,5-dihydrobenzo[f][1,2]thiazepin-2(3H)-yl)methyl)phenyl)-5-((trans)-2-(1-methyl-1H-1,2,3-triazol-4-yl)cyclopropyl)-1H-pyrazole-4-carboxylic acid] | 0.1 to 1 µM
1 to 10 µM | CN(Cc1cccc(-n2ncc(C(=O)O)c2[C@@H]2C[C@H]2c2cn(C)nn2)c1)S(=O)(=O)c1ccccc1OC(F)(F)F (racemic) [Example 46, 5-((trans)-2-(1-methyl-1H-1,2,3-triazol-4-yl)cyclopropyl)-1-(3-((N-methyl-2-(trifluoromethoxy)phenylsulfonamido)methyl)phenyl)-1H-pyrazole-4-carboxylic acid] | 1 to 10 µM
0.1 to 1 µM | CCCCCCN(Cc1cccc(-n2ncc(C(=O)O)c2[C@@H]2C[C@H]2c2cn(C)nn2)c1)S(=O)(=O)c1ccc(Oc2ccccc2)cc1 (relative stereo) [Example 36, 1-(3-((N-hexyl-4-phenoxyphenylsulfonamido)methyl)phenyl)-5-((trans)-2-(1-methyl-1H-1,2,3-triazol-4-yl)-cyclopropyl)-1H-pyrazole-4-carboxylic acid] | 0.1 to 1 µM
1 to 10 µM | C[C@H]1Cc2ccccc2S(=O)(=O)N(Cc2cccc(-n3ncc(C(=O)O)c3[C@@H]3C[C@H]3c3cnn(C)c3)c2)C1 [Example 32, 1-(3-(((S)-4-methyl-1,1-dioxido-4,5-dihydrobenzo[f][1,2]thiazepin-2(3H)-yl)methyl)-phenyl)-5-(trans-2-(1-methyl-1H-pyrazol-4-yl)cyclopropyl)-1H-pyrazole-4-carboxylic acid] | 1 to 10 µM
0.01 to 0.1 µM | CCCCCCN(Cc1cccc(-n2ncc(C(=O)O)c2[C@@H]2C[C@H]2c2cn(C)nn2)c1)S(=O)(=O)c1cccc(-c2ccccc2)c1 (racemic) [Example 34, 1-(3-((N-hexyl-[1,1′-biphenyl]-3-ylsulfonamido)methyl)phenyl)-5-((trans)-2-(1-methyl-1H-1,2,3-triazol-4-yl)cyclopropyl)-1H-pyrazole-4-carboxylic acid] | 0.01 to 0.1 µM
0.1 to 1 µM | Cn1cc([C@@H]2C[C@H]2c2c(C(=O)O)cnn2-c2cccc(CN3Cc4ncccc4OC(C)(C)C3)c2)nn1 (racemic) [Example 9] | 0.1 to 1 µM
1 to 10 µM | COc1ccccc1S(=O)(=O)NCc1cccc(-n2ncc(C(=O)O)c2[C@@H]2C[C@H]2c2cn(C)nn2)c1 (racemic) [Example 52, 1-(3-((2-methoxyphenylsulfonamido)methyl)phenyl)-5-((trans)-2-(1-methyl-1H-1,2,3-triazol-4-yl)cyclopropyl)-1H-pyrazole-4-carboxylic acid] | 0.1 to 1 µM
0.01 to 0.1 µM | Cn1cc([C@@H]2C[C@H]2c2c(C(=O)O)cnn2-c2cccc(Cn3ccnc3CC3CCCCCC3)c2)nn1 (racemic) [Example 23] | 0.1 to 1 µM
10 to 100 µM | COc1ccccc1S(=O)(=O)N(C)C1CCc2ccc(-n3ncc(C(=O)O)c3[C@@H]3C[C@H]3c3cn(C)nn3)cc21 (stereo partly drawn) [Example 27, 1-(3-(2-methoxy-N-methylphenylsulfonamido)-2,3-dihydro-1H-inden-5-yl)-5-((1R,2R)-2-(1-methyl-1H-1,2,3-triazol-4-yl)cyclopropyl)-1H-pyrazole-4-carboxylic acid] | 0.1 to 1 µM
0.1 to 1 µM | CN(Cc1cccc(-n2ncc(C(=O)O)c2[C@@H]2C[C@H]2c2cn(C)nn2)c1)S(=O)(=O)c1cccc(Oc2ccccc2)c1 (racemic) [Example 35, 5-((trans)-2-(1-methyl-1H-1,2,3-triazol-4-yl)cyclo-propyl)-1-(3-((N-methyl-3-phenoxy-phenyl-sulfonamido)-methyl)phenyl)-1H-pyrazole-4-carboxylic acid] | 1 to 10 µM
0.1 to 1 µM | CCCCCCN(Cc1cccc(-n2ncc(C(=O)O)c2[C@@H]2C[C@H]2c2cn(C)nn2)c1)S(=O)(=O)c1ccccc1C (racemic) [Example 37, 1-(3-((N-hexyl-2-methylphenylsulfonamido)methyl)phenyl)-5-((trans)-2-(1-methyl-1H-1,2,3-triazol-4-yl)cyclo-propyl)-1H-pyrazole-4-carboxylic acid] | 0.01 to 0.1 µM
1 to 10 µM | Cc1ccccc1S(=O)(=O)N(C)Cc1cccc(-n2ncc(C(=O)O)c2[C@@H]2C[C@H]2c2cn(C)nn2)c1 (racemic) [Example 42, 1-(3-((N,2-dimethylphenylsulfonamido)methyl)phenyl)-5-((trans)-2-(1-methyl-1H-1,2,3-triazol-4-yl)cyclopropyl)-1H-pyrazole-4-carboxylic acid] | 1 to 10 µM
